From US20090202569A1, “Prophylactic/Therapeutic Agent for Cancer” (priority 2006, published 2009)

Legend:
[1] = tested on: lung cancer cell strain NCI-H23; assay: Combined effect of ACS inhibitor and FAS inhibitors, cell survival rate by the Sulforhodamine B method; format: cell-based; settings: 3 days, n=3, 100% = without drug treatment
SF268/ACS5 cells = assay: FAS inhibitor sensitivity of cells with stable high ACS5 expression, surviving cells counted by trypan blue exclusion; format: cell-based, human; settings: 15 μg/ml, treated for 24 hours
SF268/mock cells = assay: FAS inhibitor sensitivity of control cells, surviving cells counted by trypan blue exclusion; format: cell-based, human; settings: 15 μg/ml, treated for 24 hours

Compound	cell survival rate ([1]; NCI-H23, 0.3 μM Triacsin C alone)	growth suppression effect (SF268/ACS5 cells)	cell survival rate ([1]; NCI-H23, 2 μM FAS inhibitor alone)	growth suppression effect (SF268/mock cells)
CCCC=CCC=CC=CC=NNN=O [Triacsin C, 2,4,7-undecatrienal nitrosohydrazone]	56.3±0.5%	–	–	–
C/C=C/C/C=C/CCC(=O)[C@H]1O[C@H]1C(N)=O [Cerulenin, 2R,3S,E,E)-2,3-epoxy-4-oxo-7,10-dodecadienamide]	–	no growth suppression effect	70.2±7.9%	clear growth suppression effect
